pEC50, pIC50: −log10 of the molar value. One block for each compound: values may come before it.
Legend:
[1] = target: T1, 5-hydroxytryptamine receptor 3A (Cavia porcellus, UniProt O70212); test: Antagonist activity 5-HT3A receptor in guinea pig ileum assessed as inhibition of 2-methyl-5-HT induced response preincubated for 10 mins followed by agonist addition; conditions: read-out: pA2 (converted)
T1 sequence (O70212 whole entry): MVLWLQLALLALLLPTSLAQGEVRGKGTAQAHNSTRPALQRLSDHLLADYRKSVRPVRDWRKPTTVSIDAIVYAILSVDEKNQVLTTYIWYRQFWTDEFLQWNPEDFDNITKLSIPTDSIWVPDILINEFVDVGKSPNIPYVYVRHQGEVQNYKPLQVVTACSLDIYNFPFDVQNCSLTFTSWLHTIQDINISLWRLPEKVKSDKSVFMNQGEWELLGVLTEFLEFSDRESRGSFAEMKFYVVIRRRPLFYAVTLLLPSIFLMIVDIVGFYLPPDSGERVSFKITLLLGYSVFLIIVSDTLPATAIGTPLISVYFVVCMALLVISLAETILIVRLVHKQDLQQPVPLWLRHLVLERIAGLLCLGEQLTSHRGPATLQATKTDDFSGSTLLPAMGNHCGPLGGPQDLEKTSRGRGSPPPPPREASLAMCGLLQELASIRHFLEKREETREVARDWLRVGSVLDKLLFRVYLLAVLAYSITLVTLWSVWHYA

[2] = target: Neuronal acetylcholine receptor; alpha3/beta2 (Homo sapiens) (UniProt P17787+P32297); test: Positive allosteric modulation of human alpha3beta2 nAChR expressed Xenopus oocytes at 3 uM relative to acetylcholine; format: protein-complex assay
[3] = target: Neuronal acetylcholine receptor subunit alpha-7 (Homo sapiens, UniProt P36544); test: Inhibition of human alpha7 nAChR expressed in Xenopus oocytes at -80 mV holding potential by electro-physiological analysis; format: cell-based
Chain of Neuronal acetylcholine receptor subunit alpha-7 (P36544 whole entry): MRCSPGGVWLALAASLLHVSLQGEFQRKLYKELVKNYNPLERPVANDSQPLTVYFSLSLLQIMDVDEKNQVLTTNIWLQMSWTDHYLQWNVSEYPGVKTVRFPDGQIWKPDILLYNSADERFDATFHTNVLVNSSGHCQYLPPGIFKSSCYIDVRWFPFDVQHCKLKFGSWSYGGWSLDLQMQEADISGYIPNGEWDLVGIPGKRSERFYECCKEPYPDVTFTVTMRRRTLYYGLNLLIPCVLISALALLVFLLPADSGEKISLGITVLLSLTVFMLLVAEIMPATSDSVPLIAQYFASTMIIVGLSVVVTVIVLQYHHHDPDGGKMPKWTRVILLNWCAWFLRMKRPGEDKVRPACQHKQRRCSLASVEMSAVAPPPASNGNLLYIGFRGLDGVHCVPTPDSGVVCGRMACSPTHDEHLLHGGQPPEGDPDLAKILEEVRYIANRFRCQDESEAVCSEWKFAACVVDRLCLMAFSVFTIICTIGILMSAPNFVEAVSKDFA

[4] = target: T2, 5-hydroxytryptamine receptor 3A (Homo sapiens, UniProt P46098); test: Antagonist activity at 5-HT3A receptor (unknown origin) assessed as inhibition of serotonin-induced peak currents
T2 sequence (P46098 whole entry): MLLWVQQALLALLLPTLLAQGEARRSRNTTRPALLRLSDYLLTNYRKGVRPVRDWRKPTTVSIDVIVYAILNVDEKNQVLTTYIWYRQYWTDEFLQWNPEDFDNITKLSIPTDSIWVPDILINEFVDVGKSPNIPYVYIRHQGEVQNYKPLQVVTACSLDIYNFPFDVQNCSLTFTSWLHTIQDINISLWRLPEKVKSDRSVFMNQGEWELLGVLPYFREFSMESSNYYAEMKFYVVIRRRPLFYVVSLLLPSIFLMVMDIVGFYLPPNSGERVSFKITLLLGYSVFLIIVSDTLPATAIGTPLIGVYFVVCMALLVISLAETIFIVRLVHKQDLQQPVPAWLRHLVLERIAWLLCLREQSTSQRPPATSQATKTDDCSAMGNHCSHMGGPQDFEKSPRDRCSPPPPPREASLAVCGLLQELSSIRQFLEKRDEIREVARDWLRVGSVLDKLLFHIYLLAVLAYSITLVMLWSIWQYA

[5] = target: T2, 5-hydroxytryptamine receptor 3A; test: Agonist activity at human […] receptor expressed in Xenopus laevis oocytes; format: cell-based
[6] = target: T3, Serotonin 3 (5-HT3) receptor (Homo sapiens, UniProt O95264+P46098); test: Agonist activity at human […] receptor expressed in Xenopus laevis oocytes; format: cell-based
T3 sequence (P46098 whole entry): T2 sequence (P46098 whole entry)
T3 sequence (O95264 whole entry): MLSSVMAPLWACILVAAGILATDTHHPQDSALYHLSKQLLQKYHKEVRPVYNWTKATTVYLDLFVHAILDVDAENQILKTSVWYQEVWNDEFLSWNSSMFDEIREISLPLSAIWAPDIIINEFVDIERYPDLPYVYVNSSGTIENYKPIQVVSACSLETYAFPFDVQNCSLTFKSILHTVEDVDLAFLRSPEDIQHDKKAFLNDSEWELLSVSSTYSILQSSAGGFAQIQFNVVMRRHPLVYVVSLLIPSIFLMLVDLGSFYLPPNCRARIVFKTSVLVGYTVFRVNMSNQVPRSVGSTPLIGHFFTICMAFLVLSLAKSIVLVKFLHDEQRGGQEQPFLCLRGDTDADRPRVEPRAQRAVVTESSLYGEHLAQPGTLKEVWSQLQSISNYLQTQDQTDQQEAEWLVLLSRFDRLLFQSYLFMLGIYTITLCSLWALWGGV

[7] = target: GABA-A receptor; alpha-1/beta-3/gamma-2 (Homo sapiens) (UniProt P14867+P18507+P28472); test: Positive allosteric modulation of recombinant human GABAA receptor alpha1beta3gamma2 expressed in Xenopus oocytes assessed as potentiation of GABA induced chloride current response relative to 10 uM GABA; format: cell-based
[8] = target: GABA-A receptor; alpha-2/beta-3/gamma-2 (Homo sapiens) (UniProt P18507+P28472+P47869); test: Positive allosteric modulation of recombinant human GABAA receptor alpha2beta3gamma2 expressed in Xenopus oocytes assessed as potentiation of GABA induced chloride currents relative to 10 uM GABA; format: cell-based
[9] = target: Gamma-aminobutyric acid receptor subunit alpha-5/beta-3 (Homo sapiens) (UniProt P28472+P31644); test: Positive allosteric modulation of recombinant human GABAA receptor alpha5beta3 expressed in Xenopus oocytes assessed as potentiation of GABA induced chloride current response relative to GABA; format: cell-based
[10] = target: GABA-A receptor; alpha-5/beta-3/gamma-2 (Homo sapiens) (UniProt P18507+P28472+P31644); test: Positive allosteric modulation of recombinant human GABAA receptor alpha5beta3gamma2 expressed in Xenopus oocytes assessed as potentiation of GABA induced chloride currents relative to 10 uM GABA; format: cell-based
[11] = target: GABA-A receptor alpha-1/beta-3 (Homo sapiens) (UniProt P14867+P28472); test: Positive allosteric modulation of recombinant human GABAA receptor alpha1beta3 expressed in Xenopus oocytes assessed as potentiation of GABA induced chloride current response relative to GABA; format: cell-based
[12] = target: GABA-A receptor; alpha-6/beta-3/gamma-2 (Homo sapiens) (UniProt P18507+P28472+Q16445); test: Positive allosteric modulation of recombinant human GABAA receptor alpha6beta3gamma2 expressed in Xenopus oocytes assessed as potentiation of GABA induced chloride currents relative to 10 uM GABA; format: cell-based
[13] = target: Gamma-aminobutyric acid receptor subunit alpha-3/beta-3 (Homo sapiens) (UniProt P28472+P34903); test: Positive allosteric modulation of recombinant human GABAA receptor alpha3beta3 expressed in Xenopus oocytes assessed as potentiation of GABA induced chloride current response relative to GABA; format: cell-based
[14] = target: GABA A receptor alpha-4/beta-3/gamma-2 (Homo sapiens, UniProt P18507+P28472+P48169); test: Positive allosteric modulation of recombinant human GABAA receptor alpha4beta3gamma2 expressed in Xenopus oocytes assessed as potentiation of GABA induced chloride currents relative to 10 uM GABA; format: cell-based
[15] = target: GABA-A receptor; alpha-3/beta-3/gamma-2 (Homo sapiens) (UniProt P18507+P28472+P34903); test: Positive allosteric modulation of recombinant human GABAA receptor alpha3beta3gamma2 expressed in Xenopus oocytes assessed as potentiation of GABA induced chloride currents relative to 10 uM GABA; format: cell-based
[16] = target: Gamma-aminobutyric acid receptor subunit alpha-2/beta-3 (Homo sapiens) (UniProt P28472+P47869); test: Positive allosteric modulation of recombinant human GABAA receptor alpha2beta3 expressed in Xenopus oocytes assessed as potentiation of GABA induced chloride current response relative to GABA; format: cell-based
[17] = Positive allosteric modulation of human (alpha4beta2)2alpha4 nAChR expressed in HEK cells preincubated for 15 mins followed by dihydro-beta-erythroidine hydrobromide addition by fluorometric analysis; format: cell-based; conditions: HEK293
[18] = target: T4, Neuronal acetylcholine receptor; alpha4/beta2 (Homo sapiens, UniProt P17787+P43681); test: Positive allosteric modulation of human alpha4beta2 nAChR expressed in HEK cells preincubated for 15 mins followed by dihydro-beta-erythroidine hydrobromide addition by fluorometric analysis; format: cell-based
T4 sequence (P17787 whole entry): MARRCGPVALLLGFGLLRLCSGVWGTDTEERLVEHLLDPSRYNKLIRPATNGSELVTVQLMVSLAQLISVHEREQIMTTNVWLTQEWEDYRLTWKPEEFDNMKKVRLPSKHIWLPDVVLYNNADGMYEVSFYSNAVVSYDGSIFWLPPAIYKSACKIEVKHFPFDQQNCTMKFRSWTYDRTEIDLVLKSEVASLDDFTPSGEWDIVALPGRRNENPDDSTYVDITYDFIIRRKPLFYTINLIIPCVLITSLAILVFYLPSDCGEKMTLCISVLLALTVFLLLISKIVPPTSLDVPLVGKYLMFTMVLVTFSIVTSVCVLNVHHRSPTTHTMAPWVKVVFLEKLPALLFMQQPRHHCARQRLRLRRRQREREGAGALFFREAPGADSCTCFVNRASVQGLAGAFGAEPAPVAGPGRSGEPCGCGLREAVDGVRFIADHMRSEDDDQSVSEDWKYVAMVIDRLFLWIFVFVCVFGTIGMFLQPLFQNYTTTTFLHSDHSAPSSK
T4 sequence (P43681 whole entry): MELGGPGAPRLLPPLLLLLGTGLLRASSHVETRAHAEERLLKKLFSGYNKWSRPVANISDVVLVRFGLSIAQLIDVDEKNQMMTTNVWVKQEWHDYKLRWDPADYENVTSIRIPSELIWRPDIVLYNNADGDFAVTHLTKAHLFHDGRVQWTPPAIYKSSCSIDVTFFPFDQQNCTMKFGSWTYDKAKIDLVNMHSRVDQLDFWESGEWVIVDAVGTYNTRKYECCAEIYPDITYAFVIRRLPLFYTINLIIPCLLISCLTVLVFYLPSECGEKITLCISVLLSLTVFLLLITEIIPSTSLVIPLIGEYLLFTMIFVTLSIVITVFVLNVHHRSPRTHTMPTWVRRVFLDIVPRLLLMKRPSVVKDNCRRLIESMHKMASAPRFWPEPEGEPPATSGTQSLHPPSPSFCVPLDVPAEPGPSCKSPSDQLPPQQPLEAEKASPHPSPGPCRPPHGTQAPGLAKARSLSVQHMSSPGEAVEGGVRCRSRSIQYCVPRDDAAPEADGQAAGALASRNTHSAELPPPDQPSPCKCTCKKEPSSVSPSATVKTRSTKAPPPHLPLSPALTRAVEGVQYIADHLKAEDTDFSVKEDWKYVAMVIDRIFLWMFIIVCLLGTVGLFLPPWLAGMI

[19] = target: Neuronal acetylcholine receptor; alpha4/beta4 (Homo sapiens, UniProt P30926+P43681); test: Positive allosteric modulation of human alpha4beta4 nAChR expressed in HEK cells preincubated for 15 mins followed by dihydro-beta-erythroidine hydrobromide addition by fluorometric analysis; format: cell-based
Chain of Neuronal acetylcholine receptor; alpha4/beta4 (P30926 whole entry): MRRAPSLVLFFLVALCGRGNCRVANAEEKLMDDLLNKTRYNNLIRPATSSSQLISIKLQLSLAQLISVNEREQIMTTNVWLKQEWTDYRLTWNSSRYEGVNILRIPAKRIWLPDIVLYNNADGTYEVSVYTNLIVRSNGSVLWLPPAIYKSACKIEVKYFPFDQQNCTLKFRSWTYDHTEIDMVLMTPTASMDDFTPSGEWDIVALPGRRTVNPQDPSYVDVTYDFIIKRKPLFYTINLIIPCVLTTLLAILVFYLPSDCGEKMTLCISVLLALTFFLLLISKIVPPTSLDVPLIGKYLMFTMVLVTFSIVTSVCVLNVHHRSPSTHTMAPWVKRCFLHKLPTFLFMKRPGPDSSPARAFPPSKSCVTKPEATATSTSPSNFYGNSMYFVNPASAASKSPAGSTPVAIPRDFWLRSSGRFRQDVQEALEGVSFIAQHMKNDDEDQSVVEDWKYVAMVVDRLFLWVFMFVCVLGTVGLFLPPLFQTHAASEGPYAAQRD
Chain of Neuronal acetylcholine receptor; alpha4/beta4 (P43681 whole entry): as the sequence (P43681 whole entry) above

[20] = target: T4, Neuronal acetylcholine receptor; alpha4/beta2; test: Positive allosteric modulation of human (alpha4beta2)2beta2 nAChR expressed in HEK cells preincubated for 15 mins followed by dihydro-beta-erythroidine hydrobromide addition by fluorometric analysis; format: cell-based
[21] = target: Nicotinic acetylcholine receptor alpha2/beta4 (Homo sapiens, UniProt P02708+P30926); test: Positive allosteric modulation of human alpha2beta4 nAChR expressed in HEK cells preincubated for 15 mins followed by dihydro-beta-erythroidine hydrobromide addition by fluorometric analysis; format: cell-based
Chain of Nicotinic acetylcholine receptor alpha2/beta4 (P02708 whole entry): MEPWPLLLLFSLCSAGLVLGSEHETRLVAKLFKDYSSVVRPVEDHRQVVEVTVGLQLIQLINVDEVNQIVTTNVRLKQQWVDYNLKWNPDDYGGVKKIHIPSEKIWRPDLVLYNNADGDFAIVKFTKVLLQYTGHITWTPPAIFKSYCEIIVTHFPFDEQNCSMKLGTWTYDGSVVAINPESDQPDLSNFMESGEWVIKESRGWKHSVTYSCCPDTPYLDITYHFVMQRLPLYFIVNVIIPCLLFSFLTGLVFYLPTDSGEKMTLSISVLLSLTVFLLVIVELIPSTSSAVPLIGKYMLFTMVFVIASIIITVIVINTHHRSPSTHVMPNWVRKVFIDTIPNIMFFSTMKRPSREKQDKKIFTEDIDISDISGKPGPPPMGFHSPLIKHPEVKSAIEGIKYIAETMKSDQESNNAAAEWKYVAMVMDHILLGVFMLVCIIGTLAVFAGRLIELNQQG
Chain of Nicotinic acetylcholine receptor alpha2/beta4 (P30926 whole entry): as the sequence (P30926 whole entry) above

[22] = target: Nicotinic acetylcholine receptor alpha2/beta2 (Homo sapiens, UniProt P02708+P17787); test: Positive allosteric modulation of human alpha2beta2 nAChR expressed in HEK cells preincubated for 15 mins followed by dihydro-beta-erythroidine hydrobromide addition by fluorometric analysis; format: cell-based
Chain of Nicotinic acetylcholine receptor alpha2/beta2 (P02708 whole entry): as the sequence (P02708 whole entry) above
Chain of Nicotinic acetylcholine receptor alpha2/beta2 (P17787 whole entry): as the sequence (P17787 whole entry) above

Kb [1]: 20 nM
Structure (SMILES): CCCCNC(=O)c1nc2ccccc2nc1OC

Kb [1]: 39.8 nM
Structure (SMILES): COc1nc2ccccc2nc1C(=O)Nc1nc2ccccc2s1

Kb [1]: 15.8 nM
Structure (SMILES): O=C(c1cnc2ccccc2n1)N1CCN(Cc2ccccc2)CC1

Structure (SMILES): Clc1ccccc1CN[C@@H]1CN2CCC1CC2
fold change (FC) [2]: 3

pIC50 [3]: 6.49
pIC50 [4]: 5.85
Structure (SMILES): C#CCNc1nc(NCCCCC2CCN(Cc3ccccc3)CC2)c(C#N)cc1C#N

pEC50 [5]: 5.42
pEC50 [6]: 5.55
Structure (SMILES): N=C(N)NC(=N)Nc1cccc(Cl)c1

fold change (FC) [7]: 2.6
fold change (FC) [8]: 2.1
fold change (FC) [9]: 1.4
fold change (FC) [10]: 1.4
fold change (FC) [11]: 1.4
fold change (FC) [12]: 2.9
fold change (FC) [13]: 1.4
fold change (FC) [14]: 1.4
fold change (FC) [15]: 2.9
fold change (FC) [16]: 1.8
Structure (SMILES): O=C1C=C[C@H]([C@H]2c3cccc([N+](=O)[O-])c3C=CN2C(=O)OCc2ccccc2)O1

pEC50 [17]: 6.78
pEC50 [18]: 6.35
pEC50 [19]: 6.63
pEC50 [20]: 6.56
pEC50 [21]: 6.54
pEC50 [22]: 6.18
Structure (SMILES): O=C(N[C@@H]1CCCNC1)c1cc2cccc(Br)c2s1
